From PMC11447181 (Nature Communications, 2024)
Entries after “also recorded” stand apart in the source; their conditions may differ.

Tests used:
hSLC19A3-wt = molecular target: T1, hSLC19A3-wt (Homo sapiens, UniProt Q9BZV2); assay: nanoDSF thermal shift assay / apparent binding affinity, wildtype transporter; settings: for thermal shift / interaction with hSLC19A3, in words: thermal shift screen at 20 μM and 200 μM compound
T1 construct: full-length, wildtype human SLC19A3; made in house; host or cells: Expi293F
T1 sequence (Q9BZV2 with tags, fused parts or gaps): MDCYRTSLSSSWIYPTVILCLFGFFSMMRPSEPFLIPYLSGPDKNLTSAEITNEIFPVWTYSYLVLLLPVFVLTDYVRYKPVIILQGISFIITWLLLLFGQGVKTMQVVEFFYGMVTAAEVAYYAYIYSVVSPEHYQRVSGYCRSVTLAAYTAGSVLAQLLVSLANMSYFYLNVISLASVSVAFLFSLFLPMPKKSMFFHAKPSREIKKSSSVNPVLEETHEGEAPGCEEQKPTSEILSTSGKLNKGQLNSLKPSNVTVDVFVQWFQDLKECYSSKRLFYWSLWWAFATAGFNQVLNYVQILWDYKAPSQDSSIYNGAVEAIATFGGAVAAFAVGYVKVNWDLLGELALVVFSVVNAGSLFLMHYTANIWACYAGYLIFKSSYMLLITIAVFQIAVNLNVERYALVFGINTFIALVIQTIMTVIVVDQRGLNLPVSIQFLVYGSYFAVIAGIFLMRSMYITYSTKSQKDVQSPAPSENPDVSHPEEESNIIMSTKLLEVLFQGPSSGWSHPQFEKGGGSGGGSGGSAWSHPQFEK
Method: The thermal stability of the hSLC19A3 constructs and their binding affinities for small molecules were determined by nanoDSF, using a Prometheus NT.48 (NanoTemper Technologies). For sample preparation, the protein was diluted to a final concentration of 4 μM in SEC buffer and supplied with the respective compounds in a concentration range from 2 μM to 2 mM. Before measurement, the samples were incubated for 30 min at room temperature. Melting scans were performed at a temperature range from 20 to 95 °C with a temperature increment of 1 °C per minute. Thermal unfolding curves were recorded by measuring the ratio of the tryptophan-fluorescence at 350 nm (F350) and 330 nm (F330). The protein melting temperature (Tm) of a given sample was determined as the inflection point of the thermal unfolding curves, or the local maximum of its first derivative. The measured curves were analysed using the manufacturer’s software (PR.ThermControl, v 2.1.2, NanoTemper Technologies). Based on the determined Tm values, ligand induced thermal shifts (ΔTm) were determined as the difference between the melting temperature of the ligand-bound state (Tm) and the apo state (Tm^apo).
As R, Tstd and L are known and the ΔTm and Tm^apo are experimentally determined, non-linear curve fitting can be used to estimate Ea1 and Kd,app.

[1] = molecular target: T2, hSLC19A3-wt overexpressed in Expi293F cells (Homo sapiens, UniProt Q9BZV2); assay: Mass spectrometry-based cellular thiamine-d3 uptake assay; format: cell-based; settings: 200 μM compound, 2 μM thiamine-d3, 5 min, n = 3
T2 construct: full-length, wildtype human SLC19A3; expressed in transfected cells; host or cells: Expi293F
T2 sequence (Q9BZV2 with tags, fused parts or gaps): as above
Method: The cells were then pelleted for 5 min at 250×g and resuspended in 1×PBS (pH 7.4) at a cell density of 2 million cells per mL. The cell suspension was subsequently transferred to a 96-deep well plate in three technical replicates per condition (n = 3, 1 mL per well, corresponding to 2 million cells per condition). 200 μM of the selected compounds were added to the respective wells and the cells were incubated for 1 min on a shaking platform. […] Afterwards, the cells were pelleted for 5 min at 500×g and washed 3× with 1 mL 1×PBS (pH7.4), before transferring them to a fresh 96-deep well plate. The cell pellets were stored at –70 °C. For the LC-MS/MS analysis, the samples were extracted by adding 500 µL of a mixture of H2O:MeOH:ACN (1:1:1, v/v), containing 5% (v/v) formic acid. After vortexing and ultrasonication in a water bath for 5 min at 4 °C, samples were incubated for 20 min at –20 °C. […] The supernatants were then transferred for LC-MS analysis, which was initiated within one hour after sample preparation. LC-MS/MS analysis was performed on a Vanquish UHPLC system coupled to an Orbitrap Exploris 240 high-resolution mass spectrometer (Thermo Fisher Scientific, MA, USA) in positive ESI (electrospray ionization) mode. Chromatographic separation was carried out on an Atlantis Premier BEH Z-HILIC column (Waters, MA, USA; 2.1 mm × 100 mm, 1.7 µm) at a flow rate of 0.25 mL/min. The mobile phase consisted of water:acetonitrile (9:1, v/v; mobile phase phase A) and acetonitrile:water (9:1, v/v; mobile phase B), which were modified with a total buffer concentration of 10 mM ammonium formate. The aqueous portion of each mobile phase was adjusted to pH 3.0 via addition of formic acid. The following gradient (8 min total run time including re-equilibration) was applied (time [min]/%B): 0/90, 3/85, 3.5/60, 4/60, 5/90, 8/90. Column temperature was maintained at 40 °C, the autosampler was set to 4 °C and sample injection volume was set to 3 µL. Analytes were recorded via a full scan with a mass resolving power of 120,000 over a mass range from 60 to 900 m/z (scan time: 100 ms, RF lens: 70%).
All experimental samples were measured in a randomized manner. Pooled quality control (QC) samples were prepared by mixing equal aliquots from each processed sample. Multiple QCs were injected at the beginning of the analysis in order to equilibrate the analytical system. A QC sample was analyzed after every 6th experimental sample to monitor instrument performance throughout the sequence. For determination of background signals and subsequent background subtraction, an additional processed blank sample was recorded. Data was processed using TraceFinder 5.1 and raw peak area data was exported for relative metabolite quantification.

[2] = molecular target: glycosylation-free mutant of hSLC19A3 (hSLC19A3-gf) (human, UniProt Q9BZV2 1-496, Asn45 mutated to glutamine | Asn166 mutated to glutamine); assay: BLI
glycosylation-free mutant of hSLC19A3 (hSLC19A3-gf), sequence (Q9BZV2 other isoform, or with tags, fused parts or gaps with the stated changes): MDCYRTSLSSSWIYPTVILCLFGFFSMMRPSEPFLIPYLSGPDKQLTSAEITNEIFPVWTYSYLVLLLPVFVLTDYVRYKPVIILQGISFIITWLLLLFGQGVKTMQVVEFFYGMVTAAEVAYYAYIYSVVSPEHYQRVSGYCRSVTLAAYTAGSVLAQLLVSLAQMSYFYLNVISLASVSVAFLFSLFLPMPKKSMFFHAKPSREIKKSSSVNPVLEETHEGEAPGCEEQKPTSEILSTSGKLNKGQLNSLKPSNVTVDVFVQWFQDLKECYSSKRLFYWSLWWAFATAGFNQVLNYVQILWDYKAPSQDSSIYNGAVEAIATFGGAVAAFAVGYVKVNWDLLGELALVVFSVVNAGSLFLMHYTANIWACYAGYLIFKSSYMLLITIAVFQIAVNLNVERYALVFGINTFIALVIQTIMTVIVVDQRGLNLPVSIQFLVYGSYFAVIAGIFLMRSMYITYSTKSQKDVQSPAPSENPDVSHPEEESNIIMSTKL

| Molecule | thermal shift / interaction with hSLC19A3, in words (hSLC19A3-wt) | inhibition of thiamine uptake through hSLC19A3, in words [1] | other results |
| --- | --- | --- | --- |
| CN(C)CCCC1(c2ccc(F)cc2)OCc2cc(C#N)ccc21 (stereo not drawn) [citalopram] | also interact with hSLC19A3 | interferes with thiamine uptake |  |
| CCN(CCO)CCCC(C)Nc1ccnc2cc(Cl)ccc12 (stereo not drawn) [hydroxychloroquine] | strongly stabilises hSLC19A3 |  | Kd (hSLC19A3-wt): 170 ± 55 nM |
| COc1cc2ncnc(Nc3ccc(F)c(Cl)c3)c2cc1OCCCN1CCOCC1 [gefitinib] |  | interfered with thiamine-uptake through hSLC19A3 |  |
| C[C@@H]1CCN(C(=O)CC#N)C[C@@H]1N(C)c1ncnc2[nH]ccc12 [tofacitinib] | stabilising hSLC19A3 | shows no inhibitory effect on thiamine transport |  |
| CCc1nc(N)nc(N)c1-c1ccc(Cl)cc1 [pyrimethamine] |  |  | ΔTm at 20 µM (hSLC19A3-wt; read-out: ΔTm (thermostabilisation)): 9.3 ± 0.5 °C |
| CCS(=O)(=O)N1CC(CC#N)(n2cc(-c3ncnc4[nH]ccc34)cn2)C1 [baricitinib] | did not stabilise hSLC19A3 |  |  |
| CN(C)CCC=C1c2ccccc2CCc2ccccc21 [amitriptyline] | destabilize the transporter in a concentration-dependent manner | inhibit its thiamine transport activity |  |
| Cc1ccc(NC(=O)c2ccc(CN3CCN(C)CC3)cc2)cc1Nc1nccc(-c2cccnc2)n1 [imatinib] | strongly stabilized hSLC19A3 | interfered with thiamine-uptake through hSLC19A3; also recorded: inhibitory effect comparable to the one of fedratinib | Kd (hSLC19A3-wt): 4400 ± 500 nM |
| Cc1nc(Nc2ncc(C(=O)Nc3c(C)cccc3Cl)s2)cc(N2CCN(CCO)CC2)n1 [dasatinib] |  | interfered with thiamine-uptake through hSLC19A3 |  |
| CCCc1ncc(C[n+]2ccccc2C)c(N)n1 [amprolium] | strongly stabilised the transporter against heat unfolding in a concentration-dependent manner |  |  |
| Cc1ncc(C[n+]2csc(CCOP(=O)(O)O)c2C)c(N)n1 [thiamine-p, thiamine monophosphate] | strongly reduced affinity |  |  |
| Cc1ncc(C[n+]2csc(CCO[P@](=O)(O)OP(=O)(O)O)c2C)c(N)n1 [thiamine-pp, thiamine pyrophosphate] | does not stabilise the transporter at all |  |  |
| Cc1ncc(C[n+]2csc(CCO)c2C)c(=O)[nH]1 [oxythiamine] | strongly decreased affinity and a lower thermostabilisation of the transporter; also recorded: stabilises the transporter only weakly |  |  |
| N#CCNC(=O)c1ccc(-c2ccnc(Nc3ccc(N4CCOCC4)cc3)n2)cc1 [momelotinib] | did not stabilise hSLC19A3 |  |  |
| CN(C)CCCN1c2ccccc2CCc2ccccc21 [imipramine] | destabilize the transporter in a concentration-dependent manner | inhibit its thiamine transport activity |  |
| CN(C)CCC=C1c2ccccc2COc2ccccc21 [doxepin] | destabilize the transporter in a concentration-dependent manner | inhibit its thiamine transport activity |  |
| O=C(O)CCCC[C@@H]1SC[C@@H]2NC(=O)N[C@@H]21 [biotin] | does not interact with the transporter |  |  |
| CN[C@H]1CC[C@@H](c2ccc(Cl)c(Cl)c2)c2ccccc21 [sertraline] |  |  | ΔTm (hSLC19A3-wt; at low micromolar concentrations, nanoDSF): 2.5 ± 0.4 °C |
| nanobody Nb3.4 (VHH) VHH: QVQLVESGGGLVQAGDSLRLSCAASGLTFSRYDMAWFRQAPGKEREFVAAITWTGSITDYADSVKGRFTISRDNAKNTIYLQMNSLKPEDTAVYYCAAAQVPYGSTLKFNLRTLFGSWGQGTQVTVSS |  |  | Kd [2]: 280 nM |
